How the values were obtained:
[1] = tested on: corn; assay: Test C preemergence; assay type: in vivo, Zea mays
Method in brief: (§1)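 Test material, in non-phytotoxic solvent with surfactant, was sprayed on the soil directly after seeding (preemergence) or on young plants of 2–10 cm with one to two leaves (postemergence). Greenhouse, 10 days; 0–100 visual control scale.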

[2] = tested on: corn; assay: Test C postemergence; assay type: in vivo, Zea mays; conditions: 10 days, 0 to 100 scale (0 no effect, 100 complete control)
Method in brief: as §1

[3] = tested on: ryegrass, Italian; assay: Test C postemergence; assay type: in vivo, Lolium multiflorum; conditions: 10 days, 0 to 100 scale (0 no effect, 100 complete control)
Method in brief: as §1

[4] = tested on: kochia; assay: Test C postemergence; assay type: in vivo, Bassia scoparia; conditions: 10 days, 0 to 100 scale (0 no effect, 100 complete control)
Method in brief: as §1

[5] = tested on: horseweed; assay: Test C postemergence; assay type: in vivo, Erigeron canadensis; conditions: 10 days, 0 to 100 scale (0 no effect, 100 complete control)
Method in brief: as §1

[6] = tested on: ducksalad; assay: Test D flooded paddy test; assay type: in vivo, Heteranthera limosa; conditions: 250 g ai/ha, applied to paddy water, visual rating after 13 to 14 days, scale 0 to 100 (0 no effect, 100 complete control)
Method in brief: (§2)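 At the 2-leaf stage, floodwater 3 cm deep received the test compound; that depth persisted throughout. Plants scored visually 13 to 14 days on, 0 (no effect) to 100 (complete control), dash indicating no result.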

[7] = tested on: ryegrass, Italian; assay: Test C preemergence; assay type: in vivo, Lolium multiflorum
Method in brief: as §1

[8] = tested on: sedge, umbrella; assay: Test D flooded paddy test; assay type: in vivo, Cyperus difformis; conditions: 250 g ai/ha, applied to paddy water, visual rating after 13 to 14 days, scale 0 to 100 (0 no effect, 100 complete control)
Method in brief: as §2

[9] = tested on: ragweed; assay: Test C preemergence; assay type: in vivo, Ambrosia artemisiifolia
Method in brief: as §1

[10] = tested on: pigweed, palmer; assay: Test C preemergence; assay type: in vivo, Amaranthus palmeri
Method in brief: as §1

[11] = tested on: soybean; assay: Test C postemergence; assay type: in vivo, Glycine max; conditions: 10 days, 0 to 100 scale (0 no effect, 100 complete control)
Method in brief: as §1

[12] = tested on: green foxtail; assay: Test C preemergence; assay type: in vivo, Setaria viridis
Method in brief: as §1

[13] = tested on: barnyardgrass; assay: Test C postemergence; assay type: in vivo, Echinochloa crusgalli; conditions: 10 days, 0 to 100 scale (0 no effect, 100 complete control)
Method in brief: as §1

[14] = tested on: green foxtail; assay: Test C postemergence; assay type: in vivo, Setaria viridis; conditions: 10 days, 0 to 100 scale (0 no effect, 100 complete control)
Method in brief: as §1

[15] = tested on: wheat; assay: Test C preemergence; assay type: in vivo, Triticum aestivum
Method in brief: as §1

[16] = tested on: soybean; assay: Test C preemergence; assay type: in vivo, Glycine max
Method in brief: as §1

[17] = tested on: galium; assay: Test C postemergence; assay type: in vivo, Galium aparine; conditions: 10 days, 0 to 100 scale (0 no effect, 100 complete control)
Method in brief: as §1

[18] = tested on: blackgrass; assay: Test C postemergence; assay type: in vivo, Alopecurus myosuroides; conditions: 10 days, 0 to 100 scale (0 no effect, 100 complete control)
Method in brief: as §1

[19] = tested on: kochia; assay: Test C preemergence; assay type: in vivo, Bassia scoparia
Method in brief: as §1

[20] = tested on: barnyardgrass; assay: Test D flooded paddy test; assay type: in vivo, Echinochloa crus-galli; conditions: 250 g ai/ha, applied to paddy water, visual rating after 13 to 14 days, scale 0 to 100 (0 no effect, 100 complete control)
Method in brief: as §2

[21] = tested on: oat, wild; assay: Test C postemergence; assay type: in vivo, Avena fatua; conditions: 10 days, 0 to 100 scale (0 no effect, 100 complete control)
Method in brief: as §1

[22] = tested on: barnyardgrass; assay: Test C preemergence; assay type: in vivo, Echinochloa crusgalli
Method in brief: as §1

[23] = tested on: blackgrass; assay: Test C preemergence; assay type: in vivo, Alopecurus myosuroides
Method in brief: as §1

[24] = tested on: wheat; assay: Test C postemergence; assay type: in vivo, Triticum aestivum; conditions: 10 days, 0 to 100 scale (0 no effect, 100 complete control)
Method in brief: as §1

[25] = tested on: ragweed; assay: Test C postemergence; assay type: in vivo, Ambrosia artemisiifolia; conditions: 10 days, 0 to 100 scale (0 no effect, 100 complete control)
Method in brief: as §1

[26] = tested on: rice; assay: Test D flooded paddy test; assay type: in vivo, Oryza sativa; conditions: 250 g ai/ha, applied to paddy water, visual rating after 13 to 14 days, scale 0 to 100 (0 no effect, 100 complete control)
Method in brief: as §2

[27] = tested on: pigweed, palmer; assay: Test C postemergence; assay type: in vivo, Amaranthus palmeri; conditions: 10 days, 0 to 100 scale (0 no effect, 100 complete control)
Method in brief: as §1

[28] = 500 g ai/ha, preemergence, 0 to 100 scale (0 no effect, 100 complete control)
[29] = Preemergence, 125 g ai/ha, 0 to 100 scale, 0 no effect, 100 complete control

Which results are given for `Cc1ccc(-n2cnc(C(C)O)n2)cc1C(=O)N1CC(C)Oc2c(Cl)cccc21` (mixture of isomers) [Compound 358]?
Corn plant response rating [1, 28]: 70; Plant response rating, Corn [1, 29]: 50; Plant response rating, Corn ([2]; 500 g ai/ha, postemergence): 90; Plant response rating, Corn ([2]; Postemergence, 125 g ai/ha): 90; Plant response rating, Ryegrass, Italian ([3]; 500 g ai/ha, postemergence): 100; Plant response rating, Ryegrass, Italian ([3]; Postemergence, 125 g ai/ha): 90; Plant response rating, Kochia ([4]; 500 g ai/ha, postemergence): 70; Plant response rating, Kochia ([4]; Postemergence, 125 g ai/ha): 40; Plant response rating, Horseweed ([5]; 500 g ai/ha, postemergence): 90; Plant response rating, Horseweed ([5]; Postemergence, 125 g ai/ha): 70; Plant response rating, Ducksalad (Flood) [6]: 95; Ryegrass, Italian plant response rating [7, 28]: 100; Plant response rating, Ryegrass, Italian [7, 29]: 90; Plant response rating, Sedge, Umbrella (Flood) [8]: 90; Ragweed plant response rating [9, 28]: 90; Plant response rating, Ragweed [9, 29]: 70; Pigweed, Palmer plant response rating [10, 28]: 100; Plant response rating, Pigweed, Palmer [10, 29]: 100; Plant response rating, Soybean ([11]; 500 g ai/ha, postemergence): 100; Plant response rating, Soybean ([11]; Postemergence, 125 g ai/ha): 100; Foxtail, Green plant response rating [12, 28]: 100; Plant response rating, Foxtail, Green [12, 29]: 100; Plant response rating, Barnyardgrass ([13]; 500 g ai/ha, postemergence): 100; Plant response rating, Barnyardgrass ([13]; Postemergence, 125 g ai/ha): 90; Plant response rating, Foxtail, Green ([14]; 500 g ai/ha, postemergence): 90; Plant response rating, Foxtail, Green ([14]; Postemergence, 125 g ai/ha): 90; Wheat plant response rating [15, 28]: 90; Plant response rating, Wheat [15, 29]: 50; Soybean plant response rating [16, 28]: 100; Plant response rating, Soybean [16, 29]: 100; Plant response rating, Galium ([17]; 500 g ai/ha, postemergence): 100; Plant response rating, Galium ([17]; Postemergence, 125 g ai/ha): 100; Plant response rating, Blackgrass ([18]; 500 g ai/ha, postemergence): 100; Plant response rating, Blackgrass ([18]; Postemergence, 125 g ai/ha): 90; Kochia plant response rating [19, 28]: 100; Plant response rating, Kochia [19, 29]: 20; Plant response rating, Barnyardgrass (Flood) [20]: 30; Plant response rating, Oat, Wild ([21]; 500 g ai/ha, postemergence): 80; Plant response rating, Oat, Wild ([21]; Postemergence, 125 g ai/ha): 30; Barnyardgrass plant response rating [22, 28]: 100; Plant response rating, Barnyardgrass [22, 29]: 100; Blackgrass plant response rating [23, 28]: 90; Plant response rating, Blackgrass [23, 29]: 80; Plant response rating, Wheat ([24]; 500 g ai/ha, postemergence): 80; Plant response rating, Wheat ([24]; Postemergence, 125 g ai/ha): 50; Plant response rating, Ragweed ([25]; 500 g ai/ha, postemergence): 80; Plant response rating, Ragweed ([25]; Postemergence, 125 g ai/ha): 50; Plant response rating, Rice (Flood) [26]: 15; Plant response rating, Pigweed, Palmer ([27]; 500 g ai/ha, postemergence): 80; Plant response rating, Pigweed, Palmer ([27]; Postemergence, 125 g ai/ha): 50
